Laboratory results as given in patent US7250389B1, “Antifungal compound and process for producing the same” (Meiji Seika Kaisha, Ltd., priority 1998, dated 2007).
Like-named read-outs stand apart in the source and are kept apart here.

Assays:
[1] = tested on: rice blast fungi (Pyricularia oryzae); type: in vivo
[2] = tested on: cucumber anthracnose fungi (Colletotricum lagenarium); type: in vivo; details: 200 ppm spray; cucumber seedlings; seven days after inoculation
[3] = tested on: cucumber downy mildew (pathogenic fungi: Peseudoperonocpora cubensis); experiment: Test on effect of protecting cucumber against downy mildew; type: in vivo; details: 200 ppm spray; cucumber seedlings; seven days after inoculation
Experimental: Cucumber seedlings (variety: Suyo) of first leaf development stage raised in each of plastic pots containing compost were provided. […] The agent was air dried. Thereafter, a conidial suspension, which had been previously prepared by scraping lesion portions on the undersurface of cucumber suffering from cucumber downy mildew (pathogenic fungi: […] cubensis), was evenly inoculated by spraying. The pots were then kept under moist chamber conditions at 20° C. for 24 hr to perform infection. Thereafter, they were transferred to an environment control room kept at 18° C. at night and at 22° C. in the daytime to induce the disease.

[4] = tested on: cucumber anthracnose fungi (Colletotricum lagenarium); experiment: Confirmation test on persistence of the effect of protecting cucumber against anthracnose; type: in vivo; details: for Protective value, Plot 2: inoculation on the day subsequent to holding under fluorescent lamp; for Protective value, Plot 3: inoculation on the day subsequent to holding under sunlight; for Protective value, Plot 1: inoculation on the same day as application
Excerpt: Cucumber seedlings (variety: Suyo) of first leaf development stage raised in each of plastic pots containing compost were provided. […] The agent was air dried. On the same day or 24 hr after the air drying, a conidial suspension of cucumber anthracnose fungi (Colletotricum lagenarium), which had been previously cultured in a potato soup agar medium, was evenly inoculated by spraying. […] Experimental Plots: Plot 1: Plot subjected to inoculation on the same day as application: Inoculation was carried out on the same day as the air drying, and the pots were allowed to stand under moist chamber conditions at 26° C. for 24 hr and then allowed to stand for 7 days in an environment control room kept at 18° C. at night and at 25° C. in the daytime. Plot 2: Plot subjected to inoculation on the day subsequent to holding under fluorescent lamp: After the air drying, the pots were placed in an environment control room under an indoor fluorescent lamp (the control room being kept at 18° C. at night and at 25° C. in the daytime with the fluorescent lamp being turned on for 8 hr in the daytime). 24 hr after the application of the agent, inoculation was carried out. Thereafter, the pots were allowed to stand under moist chamber conditions at 26° C. for 24 hr and then allowed to stand for 7 days in an environment control room kept at 18° C. at night and at 25° C. in the daytime. Plot 3: Plot subjected to inoculation on the day subsequent to holding under sunlight: After the air drying, the pots were placed outdoors under sunlight in the daytime (8 hr) and then allowed to stand in an environment control room kept at 18° C. 24 hr after the application of the agent, inoculation was carried out. Thereafter, the pots were allowed to stand under moist chamber conditions at 26° C. for 24 hr and then allowed to stand for 7 days in an environment control room kept at […] at night and at 25° C. in the daytime.

[5] = Photostability test (percentage residue as determined by HPLC); type: physicochemical; details: thin film
Experimental: In consideration of use in agricultural chemicals, the following test was carried out to obtain data on photostability against exposure to sunlight. Date and Time of Test: First: 5 hr from 12:00 to 17:00 on May 26, 1997 Second: 6 hr from 10:00 to 16:00 on May 28, 1997 Place: For both tests, Odawara-shi, Kanagawa Weather: For both tests, fine […] Acetone was shortly evaporated. As a result, each sample was brought into a white thin film. The films thus obtained were exposed to sunlight. After the completion of exposure to sunlight, the residual amount of UK-2A and the residual amount of the compound of Example 18 were quantitatively determined by HPLC (column: YMC-PACKODS-AS-56.0×150 mm (A-312)), mobile phase: acetonitrile-water=70 : 30 (v/v), detection wavelength: 254 nm).

blast (rice seedlings) = experiment: Photostability test (effect of protecting rice seedlings against blast, outdoors); type: in vivo; details: 200 ppm, 100 mL per m^2; outdoor rice seedlings; lesion area 19 days after application
Excerpt: Rice seedlings of three-leaf stage (variety: Koshihikari) raised outdoors in an upland field bed (1 m×1 m) for rice seedlings were covered with a vinyl tunnel, only at night, with ears of rice suffering from blast being suspended (height 40 cm) to infect rice seedlings with blast. After the incipient infection was confirmed, agent solutions having an agent concentration of 200 ppm prepared by varying the agent concentration by the method as described in Test Example 2 each were applied in an amount of 100 mL per m^2 by means of a sprayer. For one week after the application of the agent, the rice seedlings were covered with the vinyl tunnel at night to promote the infection. 19 days after the application of the agent, the lesion area of the leaf was measured, and the protective value was calculated by the following equation.
Protective value=(1−average lesion area of treated plot)/lesion area of untreated plot)×100

## CCCCCCC1C(=O)OC(C)C(NC(=O)c2cccc(NC=O)c2O)C(=O)OC(C)C1OC(=O)CC(C)C (stereo not drawn) [Antimycin A, reference compound]
[1]; 100 ppm spray, rice seedlings, lesions counted seven days after inoculation
  Protective value: 83
[2]
  Protective value: 17

## CC(C)C(=O)O[C@H]1[C@H](C)OC(=O)[C@@H](NC(=O)c2cccnc2O)COC(=O)[C@@H]1Cc1ccccc1 [Ex. 4, (2R,3R,4S,7S)-7-(2-Hydroxynicotinylamino)-2-benzyl-5,9-dioxa-3-isobutyryloxy-4-methyl-1,6-cyclononanedione]
[1]; in vivo
  Protective value: 86
[3]
  Protective value: 78

## CC(C)C(=O)O[C@H]1[C@H](C)OC(=O)[C@@H](NC(=O)c2cccc(O)n2)COC(=O)[C@@H]1Cc1ccccc1 [Ex. 5, (2R,3R,4S,7S)-7-(6-Hydroxypicolinylamino)-2-benzyl-5,9-dioxa-3-isobutyryloxy-4-methyl-1,6-cyclononanedione]
[1]; in vivo
  Protective value: 90
[3]
  Protective value: 100

## CC(C)C(=O)O[C@H]1[C@H](C)OC(=O)[C@@H](NC(=O)c2nc3ccccc3nc2O)COC(=O)[C@@H]1Cc1ccccc1 [Ex. 8, (2R,3R,4S,7S)-7-(3-Hydroxy-2-quinoxalinecarboxylamino)-2-benzyl-5,9-dioxa-3-isobutyryloxy-4-methyl-1,6-cyclononanedione]
[1]; in vivo
  Protective value: 100
[2]
  Protective value: 100

## COc1ccnc(C(=O)N[C@H]2COC(=O)[C@H](Cc3ccccc3)[C@@H](OC(=O)C(C)C)[C@H](C)OC2=O)c1OC(C)=O [Ex. 18, (2R,3R,4S,7S)-7-(3-Acetoxy-4-methoxypicolinylamino)-2-benzyl-5,9-dioxa-3-isobutyryloxy-4-methyl-1,6-cyclo-nonanedione]
[4]; 10 ppm
  Protective value, Plot 2: 93
  Protective value, Plot 3: 60
  Protective value, Plot 1: 67
[4]; 30 ppm
  Protective value, Plot 2: 93
  Protective value, Plot 3: 80
  Protective value, Plot 1: 67
[4]; 100 ppm
  Protective value, Plot 2: 93
  Protective value, Plot 3: 93
  Protective value, Plot 1: 87
[4]; plot 3
  residual effect under sunlight compared with UK-2A: much superior to UK-2A
[4]; plots 1 and 2
  difference in protective value between UK-2A and the compound of Example 18: no significant difference
[5]; First test: 5 hr sunlight
  Residual amount after exposure to sunlight: 98%
[5]; Second test: 6 hr sunlight
  Residual amount after exposure to sunlight: 93%
Blast (rice seedlings)
  Protective value: 95

## COc1cccc(C(=O)N[C@H]2COC(=O)[C@H](Cc3ccccc3)[C@@H](OC(=O)C(C)C)[C@H](C)OC2=O)c1O [Ex. 38, (2R,3R,4S,7S)-7-(3-Methoxysalicylamino)-2-benzyl-5,9-dioxa-3-isobutyryloxy-4-methyl-1,6-cyclononanedione]
[1]; in vivo
  Protective value: 83

## CC(C)C(=O)O[C@H]1[C@H](C)OC(=O)[C@@H](NC(=O)c2ccccc2O)COC(=O)[C@@H]1Cc1ccccc1 [Ex. 39, (2R,3R,4S,7S)-7-Salicylamino-2-benzyl-5,9-dioxa-3-isobutyryloxy-4-methyl-1,6-cyclononanedione]
[1]; in vivo
  Protective value: 98

## CC(C)C(=O)O[C@H]1[C@H](C)OC(=O)[C@@H](NC(=O)c2cccc([N+](=O)[O-])c2O)COC(=O)[C@@H]1Cc1ccccc1 [Ex. 40, (2R,3R,4S,7S)-7-(3-Nitrosalicyl)amino-2-benzyl-5,9-dioxa-3-isobutyryloxy-4-methyl-1,6-cyclononanedione]
[3]
  Protective value: 100

## CC(C)C(=O)O[C@H]1[C@H](C)OC(=O)[C@@H](NC(=O)c2cccc(N)c2O)COC(=O)[C@@H]1Cc1ccccc1 [Ex. 41, (2R,3R,4S,7S)-7-(3-Aminosalicyl)amino-2-benzyl-5,9-dioxa-3-isobutyryloxy-4-methyl-1,6-cyclononanedione]
[1]; in vivo
  Protective value: 86
[2]
  Protective value: 100
[3]
  Protective value: 88

## CC(C)C(=O)O[C@H]1[C@H](C)OC(=O)[C@@H](NC(=O)c2cc(Cl)ccc2O)COC(=O)[C@@H]1Cc1ccccc1 [Ex. 46, (2R,3R,4S,7S)-7-(5-Chlorosalicyl)amino-2-benzyl-5,9-dioxa-3-isobutyryloxy-4-methyl-1,6-cyclononanedione]
[2]
  Protective value: 100

## CC(C)C(=O)O[C@H]1[C@H](C)OC(=O)[C@@H](NC(=O)c2cc(NC=O)ccc2O)COC(=O)[C@@H]1Cc1ccccc1 [Ex. 52, (2R,3R,4S,7S)-7-(5-Formylaminosalicyl)amino-2-benzyl-5,9-dioxa-3-isobutyryloxy-4-methyl-1,6-cyclononanedione]
[3]
  Protective value: 100

## COc1ccnc(C(=O)N[C@H]2COC(=O)[C@H](Cc3ccccc3)[C@@H](OC(=O)C(C)C)[C@H](C)OC2=O)c1O [UK-2A, reference compound]
[4]; 10 ppm
  Protective value, Plot 2: 93
  Protective value, Plot 3: 27
  Protective value, Plot 1: 80
[4]; 30 ppm
  Protective value, Plot 2: 100
  Protective value, Plot 3: 60
  Protective value, Plot 1: 100
[5]; First test: 5 hr sunlight
  Residual amount after exposure to sunlight: 33%
[5]; Second test: 6 hr sunlight
  Residual amount after exposure to sunlight: 64%
Blast (rice seedlings)
  Protective value: 63
